Assay results as given in ChEMBL document CHEMBL1126282, “Synthesis and conformational properties of the lanthionine-bridged opioid peptide [D-AlaL2,AlaL5]enkephalin as determined by NMR and computer simulations” (J Med Chem, 1992).

Experiments:
Rattus norvegicus = assay: Effective dose was measured using in vivo rat hot plate test after intrathecal injection; assay type: functional; details: central
Cavia porcellus [1] = species on record: Cavia porcellus; assay: Concentration inhibiting electrically induced contraction of guinea pig ileum(GPI).; assay type: functional, organism-based
Cavia porcellus [2] = species on record: Cavia porcellus; assay: Potency to inhibit electrically induced contraction of guinea pig ileum(GPI) relative to [Leu5]-enkephalin.; assay type: functional
Mus musculus [3] = species on record: Mus musculus; assay: Potency to inhibit electrically induced contraction of mouse vas deferens(MVD) relative to [Leu5]-enkephalin.; assay type: functional
Mus musculus [4] = assay: Concentration inhibiting electrically induced contraction of mouse vas deferens(MVD) at an ED50 of 0.15(ug/kg).; assay type: functional, organism-based
Cavia porcellus [5] = assay: Concentration inhibiting electrically induced contraction of guinea pig ileum(GPI) at an ED50 of 0.15(ug/kg).; assay type: functional, organism-based
[6] = Selectivity Ratio of IC50 of MVD to IC50 of GPI; assay type: functional

SMILES	ED50 (Rattus norvegicus) [µg/kg]	Relative potency (Cavia porcellus [2])	Relative potency (Mus musculus [3])	Ratio [6]	further results
CC(C)C[C@H](NC(=O)[C@H](Cc1ccccc1)NC(=O)CNC(=O)CNC(=O)[C@@H](N)Cc1ccc(O)cc1)C(=O)O [ENKEPHALIN]	> 100	–	–	–	–
NC(=O)[C@@H]1CSSC[C@@H](NC(=O)[C@@H](N)Cc2ccc(O)cc2)C(=O)NCC(=O)N[C@@H](Cc2ccccc2)C(=O)N1 [listing 1 of 2 here]	–	–	–	–	IC50 (Cavia porcellus [1]): 1.51 nM
NC(=O)[C@@H]1CSSC[C@@H](NC(=O)[C@@H](N)Cc2ccc(O)cc2)C(=O)NCC(=O)N[C@@H](Cc2ccccc2)C(=O)N1 [listing 2 of 2 here]	–	132	17	–	–
CN1CC[C@]23c4c5ccc(O)c4O[C@H]2[C@@H](O)C=C[C@H]3[C@H]1C5 [MORPHINE]	5.6	–	–	–	–
NC(=O)[C@@H]1CSC[C@@H](NC(=O)[C@@H](N)Cc2ccc(O)cc2)C(=O)NCC(=O)N[C@@H](Cc2ccccc2)C(=O)N1	0.15	396	21	0.882	IC50 (Mus musculus [4]): 0.54 nM; IC50 (Cavia porcellus [5]): 0.62 nM
NC(=O)[C@H]1CSSC[C@H](NC(=O)[C@@H](N)Cc2ccc(O)cc2)C(=O)NCC(=O)N[C@H](Cc2ccccc2)C(=O)N1	–	–	–	0.503	–
